The source of these data is patent US8173710B2, “Bicyclic sphingosine 1-phosphate analogs” (University of Virginia Patent Foundation, priority 2006, dated 2012).

The nature of one data set: Heart rate assay. The class given is in vivo. The following applies: IV dosing, 3 mg/kg, 1 hour post dosing, vehicle 2% cyclodextrin, conscious mice, FIG. 11. The method, then: Mice were dosed with compound VIII, FTY720 (intravenous, 3 mg/kg) or vehicle (2% hydroxypropyl beta-cyclodextrin) and heart rate measured at 1 hour post dosing. Heart rate was captured in unrestrained, conscious animals using the ECGenie™ system. The results are illustrated in FIG. 11.

The next data set concerns the target T1, human S1P1 receptor (Homo sapiens, UniProt P21453).
T1 construct: expressed in transfected cells; host or cells: HEK293T cells (crude microsomes)
The experiment in a line: GTPγS-35 binding assay (broken cell), S1P1. The following applies: FIG. 7, compared with S1P. The class given is biochemical. The method, then:
(§1) This assay illustrates agonist activation of G protein coupled receptors (GPCRs) in isolation. The assay forces expression concomitantly of a recombinant GPCR (e.g., the S1P1-5 receptor) and each of the three subunits (typically, α-2, β-1, or γ-2) of a heterotrimeric G protein in a HEK293T cell by transfecting the cell with four plasmid DNAs encoding the respective proteins. About 60 hours after transfection the cells are harvested, opened, and the nucleus discarded. The crude microsome is prepared from the remainder. Agonist (e.g., S1P) stimulation of the receptor-G protein complex on the microsomes results in the exchange of GTP for GDP on the α-subunit in a dose-dependent manner. The GTP-bound a-subunit is detected using a GTP analog (GTPγS-35), which is a radionuclide (sulfur-35) labeled phosphothioate that is not hydrolyzed to GDP. The microsomes with the adherent G proteins are collected by filtration and the bound GTPγS-35 quantified in a liquid scintillation counter. The assay yields relative potency (EC50 values) and maximum effect (efficacy, Emaxa Antagonist activity is detected as rightward shifts in the agonist dose-response curve in the presence of a fixed amount of antagonist. If the antagonist behaves competitively, the affinity of the receptor/antagonist pair (K1) can be determined. […]

A further data set concerns the target T2, S1P3 receptor (Homo sapiens, UniProt Q99500).
T2 construct: expressed in transfected cells; host or cells: HEK293T cells (crude microsomes)
Kind of data set: GTPγS-35 binding assay (broken cell), S1P3. The class given is biochemical. The method, then: as §1

T2 sequence (Q99500 whole entry): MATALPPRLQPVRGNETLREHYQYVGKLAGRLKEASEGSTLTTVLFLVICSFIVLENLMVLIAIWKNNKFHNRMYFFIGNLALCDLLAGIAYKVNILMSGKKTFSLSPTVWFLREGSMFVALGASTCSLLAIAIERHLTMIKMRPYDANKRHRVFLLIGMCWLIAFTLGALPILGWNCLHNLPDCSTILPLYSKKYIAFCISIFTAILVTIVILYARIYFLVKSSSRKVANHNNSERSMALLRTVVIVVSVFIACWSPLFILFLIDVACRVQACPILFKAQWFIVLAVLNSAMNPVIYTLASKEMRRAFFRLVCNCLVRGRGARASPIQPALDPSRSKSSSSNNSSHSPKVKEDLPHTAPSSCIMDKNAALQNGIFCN
T2 sequence (P04899 whole entry partner): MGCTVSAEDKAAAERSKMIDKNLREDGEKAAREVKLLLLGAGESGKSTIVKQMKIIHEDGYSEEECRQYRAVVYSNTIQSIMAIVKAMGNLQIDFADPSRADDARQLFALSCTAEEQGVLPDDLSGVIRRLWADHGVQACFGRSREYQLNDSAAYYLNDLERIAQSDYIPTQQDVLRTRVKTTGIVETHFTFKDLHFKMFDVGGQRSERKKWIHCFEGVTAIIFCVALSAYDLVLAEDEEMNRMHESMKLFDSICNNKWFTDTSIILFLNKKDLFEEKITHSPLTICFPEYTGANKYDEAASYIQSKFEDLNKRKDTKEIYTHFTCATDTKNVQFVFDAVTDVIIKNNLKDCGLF
T2 sequence (P62873 whole entry partner): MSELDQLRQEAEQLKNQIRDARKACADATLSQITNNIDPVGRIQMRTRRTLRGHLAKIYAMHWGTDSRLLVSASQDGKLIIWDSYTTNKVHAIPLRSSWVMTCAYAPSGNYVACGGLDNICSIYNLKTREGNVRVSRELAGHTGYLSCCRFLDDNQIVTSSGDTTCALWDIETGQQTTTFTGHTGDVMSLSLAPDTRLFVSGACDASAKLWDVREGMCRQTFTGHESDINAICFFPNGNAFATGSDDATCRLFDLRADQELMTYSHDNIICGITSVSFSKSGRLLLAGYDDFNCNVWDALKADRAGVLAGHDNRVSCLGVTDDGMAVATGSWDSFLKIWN
T2 sequence (P59768 2-68 partner limits assumed): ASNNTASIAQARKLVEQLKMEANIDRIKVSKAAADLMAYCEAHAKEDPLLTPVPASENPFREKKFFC
T1 sequence (P21453 whole entry): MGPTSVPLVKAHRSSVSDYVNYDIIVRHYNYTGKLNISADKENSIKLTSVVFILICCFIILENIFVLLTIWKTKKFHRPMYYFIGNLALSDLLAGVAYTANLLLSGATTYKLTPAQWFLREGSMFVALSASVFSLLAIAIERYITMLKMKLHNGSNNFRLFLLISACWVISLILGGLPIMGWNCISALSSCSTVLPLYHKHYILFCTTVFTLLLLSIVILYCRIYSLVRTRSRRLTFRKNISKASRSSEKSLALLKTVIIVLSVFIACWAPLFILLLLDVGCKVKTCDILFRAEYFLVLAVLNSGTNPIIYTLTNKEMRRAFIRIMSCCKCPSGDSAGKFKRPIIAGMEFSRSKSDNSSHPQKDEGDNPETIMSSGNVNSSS
T1 sequence (P04899 whole entry partner): as the sequence (P04899 whole entry partner) above
T1 sequence (P62873 whole entry partner): as the sequence (P62873 whole entry partner) above
T1 sequence (P59768 2-68 partner limits assumed): as the sequence (P59768 2-68 partner limits assumed) above

In the case of `CCCCCCCCc1ccc2c(c1)CCC(C(N)(CO)CO)C2` (stereo not shown) [VIII, 2-Amino-2-(6-octyl-1,2,3,4-tetrahydro-naphthalen-2-yl)-propane-1,3-diol], the “effect on the heart rate of mice” value in the data set “Heart rate assay” was “no effect”.
Consider `CCCCCCCCc1ccc2c(c1)CCC(C(N)(COP(=O)(O)O)COP(=O)(O)O)C2` (stereo not shown) [XXVII, Phosphoric acid mono-[2-amino-2-(6-octyl-1,2,3,4-tetrahydro-naphthalen-2-yl)-3-phosphonooxypropyl] ester], for which the “potency at S1P1 relative to S1P” value on human S1P1 receptor is on record as “more potent”. The “agonist activity at the S1P3 receptor” value on S1P3 receptor (FIG. 8, XXVI and XXVII tested as mixture of phosphorylated forms of compound VIII) was “low potency, partial agonists”. In addition, on S1P3 receptor (compared with S1P), the “potency at S1P3 relative to S1P” value was “less potent”.
